Data: patent publication US12371454B2, “Cyclic peptide compound having Kras inhibitory action” (priority 2019, dated 2025)
Starred links: 1 amine or outer side, 2 acyl side, 3 side chain; linkers in the order of their positions; H or OH if unused. Positions of bridges follow the written chain, without caps; N, C: chain ends. Non-standard residues stand in square brackets, D forms with d. Residues, ends and D or L forms follow the SMILES beside them. *: point of attachment. hPhe(3,5-F2-4-CF3) = N[C@@H](CCc1cc(F)c(C(F)(F)F)c(F)c1)C(=O)O; hPhe(3-Cl-4-CF3) = N[C@@H](CCc1ccc(C(F)(F)F)c(Cl)c1)C(=O)O; NMePhe(4-CF3) = CN[C@@H](Cc1ccc(C(F)(F)F)cc1)C(=O)O; hPhe(4-CF3) = N[C@@H](CCc1ccc(C(F)(F)F)cc1)C(=O)O; NMeAla(4-thiazolyl) = CN[C@@H](Cc1cscn1)C(=O)O; NEtPhe(4-Me) = CCN[C@@H](Cc1ccc(C)cc1)C(=O)O; NMePhe(4-Cl) = CN[C@@H](Cc1ccc(Cl)cc1)C(=O)O; NMePhe(4-Me) = CN[C@@H](Cc1ccc(C)cc1)C(=O)O; NMedβ3hAla = C[C@H](CC(=O)[*:2])N(C)[*:1]; NMeGly(cPent) = CN[C@H](C(=O)O)C1CCCC1; Phe(3-I) = N[C@@H](Cc1cccc(I)c1)C(=O)O; NMeCha = CN[C@@H](CC1CCCCC1)C(=O)O; NMehLeu = CN[C@@H](CCC(C)C)C(=O)O; NMeChg = CN[C@H](C(=O)O)C1CCCCC1; NMeI = CC[C@H](C)[C@H](NC)C(=O)O; dNMeF = CN[C@H](Cc1ccccc1)C(=O)O; NMeD = CN[C@@H](CC(=O)O)C(=O)O; NMeL = CN[C@@H](CC(C)C)C(=O)O; d(β3hP) = O=C(O)C[C@H]1CCCN1; d(β3hA) = C[C@@H](N)CC(=O)O; Azetidin(1-yl) = C1CN(*)C1; NMeS = CN[C@@H](CO)C(=O)O; NMeA = CN[C@@H](C)C(=O)O; NMeAib = CNC(C)(C)C(=O)O; Nle = CCCC[C@H](N)C(=O)O; Piperidide = C1CCN(*)CC1; Pyrrolidide = C1CCN(*)C1; Ac5c = NC1(C(=O)O)CCCC1; Aze = O=C(O)[C@@H]1CCN1; CH2CMe2OH = CC(C)(O)C*; βAla = NCCC(=O)O; Sar = CNCC(=O)O

target: T1, Kras and SOS1 (biotin-tagged human Kras loaded with GDP, His-tagged human SOS1) (Homo sapiens, UniProt P01116, G12D); test: Protein-protein interaction inhibition between Kras and SOS1 (KrasGl2D-SOS PPI) using AlphaScreen; format: binding; settings: AlphaScreen; biotin-tagged human Kras loaded with GDP, His-tagged human SOS1; read-out: KRAS G12D-SOS PPI IC50
T1 construct: made in house; host or cells: E. coli (stated for Kras only)
T1 sequence (P01116 1-188 isoform P01116-2 G12D): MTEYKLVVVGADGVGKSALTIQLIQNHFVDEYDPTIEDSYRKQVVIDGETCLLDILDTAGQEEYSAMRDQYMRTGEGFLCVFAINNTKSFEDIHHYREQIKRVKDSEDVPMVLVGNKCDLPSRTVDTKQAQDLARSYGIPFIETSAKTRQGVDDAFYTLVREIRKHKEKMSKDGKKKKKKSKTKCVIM
How it was run: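 Kras was produced in E. coli, purified, then loaded with GDP. It was paired via streptavidin acceptor beads with His-SOS1 held on nickel donor beads, and proximity signal at 520-620 nm was read after 680 nm illumination.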

| Compound | IC50 [nM] |
| --- | --- |
| CC[C@H](C)[C@@H]1NC(=O)[C@H](CC(C)C)N(C)C(=O)C[C@@H](C(=O)N2CCCCC2)N(C)C(=O)[C@H](C2CCCCC2)N(C)C(=O)C2(CCCC2)NC(=O)[C@H](Cc2cscn2)N(C)C(=O)[C@H](CCc2ccc(C(F)(F)F)c(Cl)c2)NC(=O)CN(C)C(=O)[C@H](CC2CCCCC2)N(C)C(=O)CN(C)C(=O)CN(C)C1=O [Compound 500] ([NMeL]I[Sar][Sar][NMeCha][Sar][hPhe(3-Cl-4-CF3)][NMeAla(4-thiazolyl)][Ac5c][NMeChg][NMeD]-Piperidide; lactam N-11) | 4.8 |
| CC[C@H](C)[C@@H]1NC(=O)[C@H](CC(C)C)N(C)C(=O)C[C@@H](C(=O)N(C)C)N(C)C(=O)[C@H]([C@@H](C)CC)N(C)C(=O)C2(CCCC2)NC(=O)[C@@H]2CCCN2C(=O)[C@H](CCc2cc(F)c(C(F)(F)F)c(F)c2)NC(=O)CN(C)C(=O)[C@H](Cc2ccc(C)cc2)N(CC)C(=O)[C@@H]2CCN2C(=O)[C@H](C)N(C)C1=O [Compound 571] ([NMeL]I[NMeA][Aze][NEtPhe(4-Me)][Sar][hPhe(3,5-F2-4-CF3)]P[Ac5c][NMeI][NMeD]-NMe2; lactam N-11) | 0.83 |
| CC[C@H](C)[C@@H]1NC(=O)[C@H](CC(C)C)N(C)C(=O)C[C@@H](C)N(C)C(=O)[C@H](CC(C)C)NC(=O)C(C)(C)N(C)C(=O)[C@H](CC(C)C)NC(=O)[C@H](CCc2ccc(C(F)(F)F)c(Cl)c2)NC(=O)CN(C)C(=O)[C@H](Cc2ccc(C(F)(F)F)cc2)N(C)C(=O)[C@@H]2CCN2C(=O)[C@H](C)N(C)C1=O [Compound 1401] (cyclo([Aze][NMePhe(4-CF3)][Sar][hPhe(3-Cl-4-CF3)]L[NMeAib]L[NMedβ3hAla][NMeL]I[NMeA])) | 120 |
| CC[C@H](C)[C@@H]1NC(=O)CCNC(=O)[C@H](COCC(C)(C)O)N(C)C(=O)[C@H](C2CCCCC2)N(C)C(=O)C2(CCCC2)NC(=O)[C@@H]2CCCN2C(=O)[C@H](CCc2ccc(C(F)(F)F)c(Cl)c2)NC(=O)CN(C)C(=O)[C@H](CC2CCCCC2)N(C)C(=O)CN(C)C(=O)CN(C)C1=O [Compound 605] (cyclo([Ac5c][NMeChg][NMeS](CH2CMe2OH)[βAla]I[Sar][Sar][NMeCha][Sar][hPhe(3-Cl-4-CF3)]P)) | 9 |
| CC[C@H](C)[C@@H]1NC(=O)[C@H](CC(C)C)N(C)C(=O)C[C@H]2CCCN2C(=O)[C@H](C2CCCCC2)N(C)C(=O)C2(CCCC2)NC(=O)[C@@H]2CCCN2C(=O)[C@H](CCc2ccc(C(F)(F)F)c(Cl)c2)NC(=O)CN(C)C(=O)[C@H](CC2CCCCC2)N(C)C(=O)CN(C)C(=O)CN(C)C1=O [Compound 1185] (cyclo([Ac5c][NMeChg][d(β3hP)][NMeL]I[Sar][Sar][NMeCha][Sar][hPhe(3-Cl-4-CF3)]P)) | 11 |
| CCCC[C@@H]1NC(=O)[C@H](Cc2cccc(I)c2)NC(=O)CN(C)C(=O)[C@H](Cc2ccc(Cl)cc2)N(C)C(=O)CN(C)C(=O)CN(C)C(=O)[C@H]([C@@H](C)CC)NC(=O)[C@H](CC(C)C)N(C)C(=O)C[C@@H](C(=O)N2CCCC2)N(C)C(=O)[C@H](Cc2ccccc2)NC(=O)C(C)(C)N(C)C1=O [Compound 1409] ([NMeL]I[Sar][Sar][NMePhe(4-Cl)][Sar][Phe(3-I)][Nle][NMeAib]F[NMeD]-Pyrrolidide; lactam N-11) | 170 |
| CC[C@H](C)[C@@H]1NC(=O)[C@H](CCC(C)C)N(C)C(=O)C[C@@H](C(=O)N2CCC2)N(C)C(=O)[C@H](C2CCCC2)N(C)C(=O)C2(CCCC2)NC(=O)[C@@H]2CCCN2C(=O)[C@H](CCc2ccc(C(F)(F)F)c(Cl)c2)NC(=O)CN(C)C(=O)[C@H](CC2CCCCC2)N(C)C(=O)[C@@H]2CCN2C(=O)[C@H](C)N(C)C1=O [Compound 806] ([NMehLeu]I[NMeA][Aze][NMeCha][Sar][hPhe(3-Cl-4-CF3)]P[Ac5c][NMeGly(cPent)][NMeD]-{Azetidin(1-yl)}; lactam N-11) | 1.1 |
| CC[C@H](C)[C@@H]1NC(=O)[C@H](C)N(C)C(=O)C[C@@H](C)NC(=O)[C@H](CC(C)C)N(C)C(=O)C2(CCCC2)NC(=O)[C@@H]2CCCN2C(=O)[C@H](CCc2ccc(C(F)(F)F)cc2)NC(=O)CN(C)C(=O)[C@H](CC2CCCCC2)N(C)C(=O)CN(C)C(=O)CN(C)C1=O [Compound 1090] (cyclo([Ac5c][NMeL][d(β3hA)][NMeA]I[Sar][Sar][NMeCha][Sar][hPhe(4-CF3)]P)) | 88 |
| CC[C@H](C)[C@@H]1NC(=O)[C@H](CC(C)C)N(C)C(=O)C[C@@H](C(=O)N2CCCCC2)N(C)C(=O)[C@H]([C@@H](C)CC)N(C)C(=O)C2(CCCC2)NC(=O)[C@@H](Cc2ccccc2)N(C)C(=O)[C@H](CCc2ccc(C(F)(F)F)c(Cl)c2)NC(=O)CN(C)C(=O)[C@H](Cc2ccc(C)cc2)N(C)C(=O)[C@@H]2CCN2C(=O)[C@H](C)N(C)C1=O [Compound 1989] ([NMeL]I[NMeA][Aze][NMePhe(4-Me)][Sar][hPhe(3-Cl-4-CF3)][dNMeF][Ac5c][NMeI][NMeD]-Piperidide; lactam N-11) | 460 |
